This is an account of results in patent US11739098B2 (BRISTOL-MYERS SQUIBB COMPANY, priority 2017, dated 2023).

Common to all, as to assay type: cell-based
In assay [1] the target is T1, human TLR7 (Homo sapiens, UniProt Q9NYK1).
T1 construct: host or cells: HEK-Blue cells (HEK293-derived reporter line)
T1 sequence (Q9NYK1 27-1049): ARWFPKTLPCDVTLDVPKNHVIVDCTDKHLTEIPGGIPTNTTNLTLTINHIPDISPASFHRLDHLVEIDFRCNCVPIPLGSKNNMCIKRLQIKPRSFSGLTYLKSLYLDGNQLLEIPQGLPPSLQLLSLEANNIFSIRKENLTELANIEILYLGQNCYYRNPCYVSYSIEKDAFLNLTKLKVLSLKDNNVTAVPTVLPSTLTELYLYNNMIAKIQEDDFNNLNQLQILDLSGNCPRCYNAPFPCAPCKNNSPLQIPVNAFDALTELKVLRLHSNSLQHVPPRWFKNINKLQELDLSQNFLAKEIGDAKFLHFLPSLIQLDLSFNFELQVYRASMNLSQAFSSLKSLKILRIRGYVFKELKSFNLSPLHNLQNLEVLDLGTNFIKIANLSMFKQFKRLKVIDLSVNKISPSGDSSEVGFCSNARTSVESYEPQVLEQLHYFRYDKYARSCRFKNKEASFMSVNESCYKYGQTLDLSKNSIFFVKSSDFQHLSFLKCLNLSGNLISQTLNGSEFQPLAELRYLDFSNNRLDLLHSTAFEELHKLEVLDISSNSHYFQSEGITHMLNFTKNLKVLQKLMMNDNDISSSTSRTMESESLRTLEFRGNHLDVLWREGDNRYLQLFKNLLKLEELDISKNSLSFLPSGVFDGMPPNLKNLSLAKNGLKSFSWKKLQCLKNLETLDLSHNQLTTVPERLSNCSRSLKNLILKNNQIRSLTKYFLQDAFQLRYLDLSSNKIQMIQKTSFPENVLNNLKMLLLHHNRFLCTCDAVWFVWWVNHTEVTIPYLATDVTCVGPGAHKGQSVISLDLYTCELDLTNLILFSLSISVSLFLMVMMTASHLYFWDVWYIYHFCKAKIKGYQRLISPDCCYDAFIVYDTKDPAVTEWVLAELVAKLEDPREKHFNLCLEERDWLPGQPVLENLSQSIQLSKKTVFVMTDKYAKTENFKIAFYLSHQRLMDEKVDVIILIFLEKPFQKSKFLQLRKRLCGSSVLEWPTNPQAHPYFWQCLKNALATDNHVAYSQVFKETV
Briefly: TLR7 inhibition reporter assay (HEK-Blue cells, SEAP reporter, gardiquimod stimulation). Conditions: HEK-Blue cells overexpressing human TLR7, SEAP reporter, gardiquimod 7.5 μM. A digest of the protocol: (§1)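 HEK-Blue cells overexpressing human TLR7, TLR8 or TLR9 (NF-κB/AP-1-driven SEAP) pre-treated 30 min at room temperature with compound (0.05 nM–50 μM), then stimulated with gardiquimod 7.5 μM (TLR7), R848 15.9 μM (TLR8) or ODN2006 5 nM (TLR9). SEAP read colorimetrically after 22 h at 37 °C; % inhibition calculated.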
(A reporter such as luciferase makes a cellular process visible.)

The target of assay [2] is T2, human TLR9 (Homo sapiens, UniProt Q9NR96).
T2 construct: host or cells: HEK-Blue cells (HEK293-derived reporter line)
T2 sequence (Q9NR96 26-1032): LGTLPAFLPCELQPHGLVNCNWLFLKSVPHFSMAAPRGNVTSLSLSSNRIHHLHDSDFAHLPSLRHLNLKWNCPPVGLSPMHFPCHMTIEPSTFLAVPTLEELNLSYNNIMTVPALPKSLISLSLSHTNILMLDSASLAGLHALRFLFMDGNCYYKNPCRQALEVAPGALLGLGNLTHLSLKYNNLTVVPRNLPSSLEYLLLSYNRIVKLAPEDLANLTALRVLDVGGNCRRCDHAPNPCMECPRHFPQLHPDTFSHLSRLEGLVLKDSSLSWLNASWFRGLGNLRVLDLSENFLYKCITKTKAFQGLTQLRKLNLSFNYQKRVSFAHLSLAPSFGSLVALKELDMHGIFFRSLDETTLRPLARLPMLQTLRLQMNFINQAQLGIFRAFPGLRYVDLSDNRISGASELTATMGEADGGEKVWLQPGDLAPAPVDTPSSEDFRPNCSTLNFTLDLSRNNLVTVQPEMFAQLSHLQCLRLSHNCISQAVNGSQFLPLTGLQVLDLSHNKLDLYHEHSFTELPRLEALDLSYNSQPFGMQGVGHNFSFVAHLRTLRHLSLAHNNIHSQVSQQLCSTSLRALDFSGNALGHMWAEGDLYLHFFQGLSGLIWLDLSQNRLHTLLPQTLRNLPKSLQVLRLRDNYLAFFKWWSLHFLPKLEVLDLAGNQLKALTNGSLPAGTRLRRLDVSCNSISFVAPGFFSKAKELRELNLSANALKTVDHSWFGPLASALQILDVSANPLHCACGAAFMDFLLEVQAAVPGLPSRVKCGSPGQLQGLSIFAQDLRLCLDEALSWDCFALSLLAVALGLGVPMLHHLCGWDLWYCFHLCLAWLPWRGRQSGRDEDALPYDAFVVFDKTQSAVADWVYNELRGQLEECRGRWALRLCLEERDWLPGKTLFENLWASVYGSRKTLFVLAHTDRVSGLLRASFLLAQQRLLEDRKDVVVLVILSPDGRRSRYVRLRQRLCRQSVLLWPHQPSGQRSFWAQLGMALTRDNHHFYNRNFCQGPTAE
Briefly: TLR9 inhibition reporter assay (HEK-Blue cells, SEAP reporter, ODN2006 stimulation). Conditions: HEK-Blue cells overexpressing human TLR9, SEAP reporter, ODN2006 5 nM. The essentials: as §1

The target of assay [3] is T3, human TLR8 (Homo sapiens, UniProt Q9NR97).
T3 construct: host or cells: HEK-Blue cells (HEK293-derived reporter line)
T3 sequence (Q9NR97 27-1041): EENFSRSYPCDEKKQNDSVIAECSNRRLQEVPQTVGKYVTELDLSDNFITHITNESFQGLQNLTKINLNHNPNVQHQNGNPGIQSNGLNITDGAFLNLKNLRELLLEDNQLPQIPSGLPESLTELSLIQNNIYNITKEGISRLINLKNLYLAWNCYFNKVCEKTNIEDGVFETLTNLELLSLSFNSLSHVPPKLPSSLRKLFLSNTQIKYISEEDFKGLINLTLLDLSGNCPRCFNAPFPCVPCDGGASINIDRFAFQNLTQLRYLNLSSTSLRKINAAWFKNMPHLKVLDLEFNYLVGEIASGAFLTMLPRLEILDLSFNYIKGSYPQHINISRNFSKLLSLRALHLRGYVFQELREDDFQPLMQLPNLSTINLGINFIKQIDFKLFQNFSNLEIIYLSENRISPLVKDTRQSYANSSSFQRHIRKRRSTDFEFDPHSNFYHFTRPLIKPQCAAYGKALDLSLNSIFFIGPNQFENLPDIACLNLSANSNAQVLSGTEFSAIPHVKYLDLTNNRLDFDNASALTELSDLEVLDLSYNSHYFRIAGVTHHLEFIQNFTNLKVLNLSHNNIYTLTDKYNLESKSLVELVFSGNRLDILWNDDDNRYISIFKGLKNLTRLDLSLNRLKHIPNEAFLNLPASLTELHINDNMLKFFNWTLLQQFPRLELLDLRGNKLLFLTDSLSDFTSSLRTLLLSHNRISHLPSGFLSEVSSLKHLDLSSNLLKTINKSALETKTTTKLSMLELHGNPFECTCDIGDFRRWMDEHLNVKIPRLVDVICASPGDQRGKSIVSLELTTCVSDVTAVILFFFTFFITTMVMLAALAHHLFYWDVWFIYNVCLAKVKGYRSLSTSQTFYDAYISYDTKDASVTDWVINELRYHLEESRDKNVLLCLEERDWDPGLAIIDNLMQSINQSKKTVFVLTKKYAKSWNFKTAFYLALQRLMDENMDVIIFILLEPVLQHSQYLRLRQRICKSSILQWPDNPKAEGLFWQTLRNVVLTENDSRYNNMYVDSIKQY
Briefly: TLR8 inhibition reporter assay (HEK-Blue cells, SEAP reporter, R848 stimulation). Conditions: HEK-Blue cells overexpressing human TLR8, SEAP reporter, R848 15.9 μM. A digest of the protocol:
as §1

The IC50 is the concentration at which inhibition is half-maximal. A higher IC50 goes with weaker potency in that assay. As for `Cc1c(-c2ccnc3c2ccn3C)[nH]c2ccc(C3CCN(C4CCN(CC(C)C)CC4)CC3)cc12` [Example 843, 4-(5-(1′-isobutyl-[1,4′-bipiperidin]-4-yl)-3-methyl-1H-indol-2-yl)-1-methyl-1H-pyrrolo[2,3-b]pyridine], the IC50 in assay [1] was 1000 to 50000 nM; in assay [2] it was less than 100 nM; in assay [3] it was less than 100 nM.

`Cc1c(-c2ccnc3c2ccn3C)[nH]c2ccc(C3CCN(C4CCN(C(C)C)CC4)CC3)cc12` [Example 844, 4-(5-(1′-isopropyl-[1,4′-bipiperidin]-4-yl)-3-methyl-1H-indol-2-yl)-1-methyl-1H-pyrrolo[2,3-b]pyridine]: the IC50 in assay [1] was 1000 to 50000 nM; in assay [2] it was less than 100 nM; in assay [3] it was less than 100 nM.

In the case of `CC(C)c1c(-c2ccnc3[nH]ncc23)[nH]c2ccc(C3CCN(CCCN(C)C)CC3)cc12` [Example 845, 3-(4-(3-isopropyl-2-(1H-pyrazolo[3,4-b]pyridin-4-yl)-1H-indol-5-yl)piperidin-1-yl)-N,N-dimethylpropan-1-amine], the IC50 in assay [1], in assay [2] and in assay [3] was 100 to 1000 nM throughout.

Turning to `CC(CN(C)C)CN1CCC(c2ccc3[nH]c(-c4ccnc5[nH]ncc45)c(C(C)C)c3c2)CC1` (stereo not drawn) [Example 846, 3-(4-(3-isopropyl-2-(1H-pyrazolo[3,4-b]pyridin-4-yl)-1H-indol-5-yl)piperidin-1-yl)-N,N,2-trimethylpropan-1-amine], the IC50 is less than 100 nM in assay [1], 100 to 1000 nM in assay [2] and less than 100 nM in assay [3].

Turning to `CC(C)c1c(-c2ccnc3[nH]ncc23)[nH]c2ccc(C3CCN(CC(C)(C)CN(C)C)CC3)cc12` [Example 847, 3-(4-(3-isopropyl-2-(1H-pyrazolo[3,4-b]pyridin-4-yl)-1H-indol-5-yl)piperidin-1-yl)-N,N,2,2-tetramethylpropan-1-amine], the IC50 was less than 100 nM in assay [1], 100 to 1000 nM in assay [2] and less than 100 nM in assay [3].

Consider `CC(C)c1c(-c2ccnc3[nH]ncc23)[nH]c2ccc(C3CCN(CCCN4CCCCC4)CC3)cc12` [Example 848, 4-(3-isopropyl-5-(1-(3-(piperidin-1-yl)propyl)piperidin-4-yl)-1H-indol-2-yl)-1H-pyrazolo[3,4-b]pyridine], for which the IC50 in assay [1], in assay [2] and in assay [3] was 100 to 1000 nM in each case.

Consider `CCc1c(-c2ccnc3[nH]ccc23)[nH]c2ccc(C3CCN(C4CCN(CC(C)C)CC4)CC3)cc12` [Example 849, 4-(3-ethyl-5-(1′-isobutyl-[1,4′-bipiperidin]-4-yl)-1H-indol-2-yl)-1H-pyrrolo[2,3-b]pyridine], for which the IC50 was 100 to 1000 nM in assay [1], 100 to 1000 nM in assay [2] and less than 100 nM in assay [3].

In the case of `CCc1c(-c2ccnc3[nH]ccc23)[nH]c2ccc(C3CCN(C4CCN(C(C)C)CC4)CC3)cc12` [Example 850, 4-(3-ethyl-5-(1′-isopropyl-[1,4′-bipiperidin]-4-yl)-1H-indol-2-yl)-1H-pyrrolo[2,3-b]pyridine], the figures for the IC50 in assay [1], in assay [2] and in assay [3] were less than 100 nM, 100 to 1000 nM and less than 100 nM, respectively.

Consider `CC(C)c1c(-c2ccnc3[nH]ncc23)[nH]c2cc(C(F)(F)F)c(C3CCN(CC4CCNC4)CC3)cc12` (stereo not drawn) [Example 851, 4-(3-isopropyl-5-(1-(pyrrolidin-3-ylmethyl)piperidin-4-yl)-6-(trifluoromethyl)-1H-indol-2-yl)-1H-pyrazolo[3,4-b]pyridine], for which the IC50 in assay [1] was less than 100 nM; in assay [2] it was 100 to 1000 nM; in assay [3] it was 100 to 1000 nM.

In the case of `CC(C)c1c(-c2ccnc3[nH]ncc23)[nH]c2cc(F)c(C3CCN(CC4CCN(C(C)C)C4)CC3)cc12` (stereo not drawn) [Example 852, 4-(6-fluoro-3-isopropyl-5-(1-((1-isopropylpyrrolidin-3-yl)methyl)piperidin-4-yl)-1H-indol-2-yl)-1H-pyrazolo[3,4-b]pyridine], the IC50 in assay [1] was less than 100 nM; in assay [2] it was 100 to 1000 nM; in assay [3] it was less than 100 nM.

As for `CC(C)c1c(-c2ccnc3[nH]ncc23)[nH]c2cc(F)c(C3CCN(CC4CCNC4)CC3)cc12` (stereo not drawn) [Example 853, 4-(6-fluoro-3-isopropyl-5-(1-(pyrrolidin-3-ylmethyl)piperidin-4-yl)-1H-indol-2-yl)-1H-pyrazolo[3,4-b]pyridine], the IC50 in assay [1], in assay [2] and in assay [3] was less than 100 nM throughout.

Regarding `CC(C)c1c(-c2ccnc3[nH]ncc23)[nH]c2cc(C(F)(F)F)c(C3CCN(CC4CCN(C(C)C)C4)CC3)cc12` (stereo not drawn) [Example 854, 4-(3-isopropyl-5-(1-((1-isopropylpyrrolidin-3-yl)methyl)piperidin-4-yl)-6-(trifluoromethyl)-1H-indol-2-yl)-1H-pyrazolo[3,4-b]pyridine], the values for the half-inhibitory concentration (IC50) in assay [1], in assay [2] and in assay [3] were less than 100 nM, 100 to 1000 nM and 100 to 1000 nM, respectively.
